Data as given in US20230225321A1, “ARTHROPOD REPELLENTS OBTAINED BY CHEMICALLY CONVERTING LACTIC ACID, LACTATES OR OTHER LACTIC ACID DERIVATIVES” (UNIVERSIDADE FEDERAL DO PARANA, priority 2020, published 2023).

Key:
[1] = test system: female A. aegypti mosquitoes; experiment: Repellency test, treated hand in cage of mosquitoes, time to first bite; format: in vivo; conditions: for Repellency: repellency time until first bite, solutions of 15 to 20% in ethanol applied to hand, cage with 20 female A. aegypti
Description: Repellency tests can be carried out in the laboratory, at a temperature of 20° C.±2° C. and a relative humidity of 50 to 60%. Temperature and relative humidity data should be monitored and recorded using a digital thermohygrometer during the experiments.
To perform the tests, there were used wooden cages with screens on the sides and glass on the upper face measuring 30 cm×30 cm×30 cm containing 20 female A. aegypti mosquitoes, all mated with no previous blood meal. The tests must be carried out during the daytime, respecting the preference for the mosquito's hematophagy activity.
For the tests, one of the hands of the analyzer must be sanitized with neutral soap and then the upper, lower, lateral face and the region between the fingers must be treated with repellent solutions in ethanol, in order for the compounds to have their repellency activities evaluated. […]
When the first bite occurs, the experiment is interrupted, and the time is recorded by a digital stopwatch.

mosquitoes = conditions: cited from earlier work

SMILES | Repellency [1] [h] | other results
C[C@H](O)C(=O)N1CCCC1 [Input 7] | 0 | 
CCCC(=O)O[C@@H](C)C(=O)N(CC)CC [Input 3] | 2 | 
CCCC(=O)OC(C)C(=O)N1CCCC1 (centres unmarked) [Input 2] | >10 | 
CCN(CC)C(=O)[C@H](C)OC(C)=O [Input 4] | 5 | 
CCCC(=O)O[C@@H](C)C(=O)N1CCCCC1 [Input 5] | >10 | 
CCN(CC)C(=O)c1cccc(C)c1 [DEET, N,N-diethyl-3-methylbenzamide] |  | long-lasting effect (duration) (mosquitoes; concentration of 20% to 30% of the compound): more than 6 hours
CCC(C)OC(=O)N1CCCCC1CCO (centres unmarked) [Icaridin] |  | protection (duration) (mosquitoes; concentration of 20%): up to 10 hours; minimum concentration for repellent action (mosquitoes; in vivo): 5%
CCCCN(CCC(=O)OCC)C(C)=O [IR 3535, ethyl butylacetylaminopropionate] |  | effectiveness (mosquitoes; used in a concentration above 10%): slightly lower compared to DEET
CCCC(=O)O[C@@H](C)C(=O)N1CCCC1 [Input 8] | >12 | result in terms of repellency time (comparison within Table 1) ([1]; solutions of 15 to 20% in ethanol): best result in terms of repellency time
